From patent US20210069295A1, “GALECTINS CONTROL MTOR IN RESPONSE TO ENDOMEMBRANE DAMAGE AND PROVIDE A MECHANISM AND TARGET FOR THE TREATMENT OF AUTOPHAGY-RELATED DISEASES” (STC. UNM, priority 2017, published 2021)
Peptide text beside a SMILES is read from it.

Experiments:
[1] = test system: AMPK; experiment: AMPK activation by immunoblotting of phosphorylated AMPKα, ACC and ULK1 in HEK293A cells; assay type: cell-based
[2] = test system: Ragulator-Rag complex; experiment: Co-immunoprecipitation of Ragulator, Rag GTPases and mTOR/Raptor in HEK293T cells; assay type: cell-based; conditions: 100 μM GPN 1 h
Protocol: (A) Analysis of mTOR activity in TSC2-deleted (TSC2−/−) and wildtype (TSC2WT) HeLa cells treated with 100 μM GPN in full medium (Full) or starved in EBSS for 1 h. mTOR activity was monitored by immunoblotting analysis of S6K1 (T389) phosphorylation (phosphorylated S6K (p-T389) relative to total S6K). Ctrl, control (untreated cells). (B) Co-immunoprecipitation analysis of changes in interactions between Ragulator and Rag GTPases following treatment with GPN. HEK293T cells stably expressing FLAG-metap2 (control) or FLAG-p14 were treated with 100 μM GPN in full medium for 1 h. Cell lysates were immunoprecipitated (IP) with anti-FLAG antibody and immunoblotted for endogenous RagA or RagC. […] (D) Analysis of mTOR activity in HEK293T cells or HEK293T cells stably expressing constitutively active RagB GTPase (RagBQ99L) treated with 100 μM GPN in full medium or starved in EBSS for 1 h. mTOR activity was monitored as in A. Data, means±SEM, (n=3), † not significant, **p<0.01, ANOVA. […] (F) Quantification by HC of overlaps between mTOR and LAMP2 (representative images shown in FIG. S2C) in HEK293T cells and HEK293T cells stably expressing constitutively active RagB GTPase (RagBQ99L) treated with 100 μM GPN in full medium for 1 h. Data, means±SEM, n≥3 independent experiments (500 primary objects counted per well; ≥5 wells/sample per each experiment); † p≥0.05, *p<0.05, ANOVA. […]

[3] = test system: bone marrow-derived macrophages (BMMs); experiment: LysoTracker Red DND-99 staining in bone marrow-derived macrophages (BMMs); assay type: cell-based, murine; conditions: GPN 400 μM or LLOMe, 1 h

NCC(=O)N[C@@H](Cc1ccccc1)C(=O)Nc1ccc2ccccc2c1 [GPN, glycyl-L-phenylalanine 2-naphththylamide] (HELM PEPTIDE1{G.F.[c1ccc2cc(N[*:1])ccc2c1]}$$$$V2.0)
ULK1 pS317 (activating AMPK phosphosite) ([1]; 100 μM GPN): increase
ULK1 pS757 (mTOR-dependent inactivating phosphosite) ([1]; 100 μM GPN): decreased
phosphorylation of S79 of acetyl-CoA carboxylase (ACC) ([1]; 100 μM GPN): elevated phosphorylation
AMPK activation (AMPKα T172 phosphorylation) ([1]; HEK293A, 100 μM GPN in full medium): activated
interactions between Ragulator (p14 and p18) and RagA/RagC in co-IPs [2]: enhanced interactions
mTOR and Raptor levels in complexes with RagB or RagA [2]: diminished mTOR and Raptor levels
LysoTracker Red DND-99 staining in BMMs (lysosomal damage) [3]: reduced LysoTracker Red DND-99 staining
